# From PubChem BioAssay (NCI)
#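 A five-concentration, 48-hour dose response in 96-well plates underlies each endpoint, interpolated linearly between surrounding concentrations. GI50 is the concentration that inhibits growth by half. At the TGI there is no net growth.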 *1 amine or outer side, *2 acyl side, *3 side chain or, on linkers, in order; H or OH if unused. Where a SMILES comes first, the peptide text is derived from it. [ ]: non-standard residue; d: D form. X33 = C=CCC(O[*:1])C(=O)[*:2]; NMeV = CN[CH](C(=O)O)C(C)C; NMeA = CN[CH](C)C(=O)O; βAla = NCCC(=O)O
# Legend:
# Test in all cases: NCI tumour cell line growth inhibition, 48 h
# [1] = system: CAKI-1 renal
# [2] = system: A498 renal
# [3] = system: OVCAR-8 ovarian
# [4] = system: SK-MEL-5 melanoma
# [5] = system: SN12C renal
# [6] = system: TK-10 renal
# [7] = system: MOLT-4 leukemia
# [8] = system: MALME-3M melanoma
# [9] = system: PC-3 prostate
# [10] = system: NCI-H23 lung
# [11] = system: MDA-MB-231 breast
# [12] = system: OVCAR-3 ovarian
# [13] = system: SNB-19 CNS
# [14] = system: UACC-62 melanoma
# [15] = system: HCC-2998 colon
# [16] = system: HOP-92 NSCLC
# [17] = system: MDA-N
# [18] = system: HS 578T breast
SMILES,TGI [1],TGI [2],TGI [3],TGI [4],TGI [5],TGI [6],TGI [7],TGI [8],TGI [9],TGI [10],TGI [11],TGI [12],TGI [13],TGI [14],TGI [15],TGI [16],TGI [17],TGI [18],GI50 [5],GI50 [12]
O=C(CNC(=O)OCc1ccccc1)NCCCCC(NC(=O)OCc1ccccc1)C(=O)NC(CCCCNC(=O)CNC(=O)OCc1ccccc1)C(=O)OCc1ccccc1 (stereo unspecified),> 62.5 µM,> 62.5 µM,> 62.5 µM,> 62.5 µM,> 62.5 µM,> 62.5 µM,> 62.5 µM,> 62.5 µM,> 62.5 µM,> 62.5 µM,> 62.5 µM,> 62.5 µM,> 62.5 µM,> 62.5 µM,> 62.5 µM,,,,,
CCC(=O)N(O)C(C)(C)C,> 100 µM,,> 100 µM,> 100 µM,> 100 µM,> 100 µM,> 100 µM,> 100 µM,,> 100 µM,,> 100 µM,> 100 µM,> 100 µM,> 100 µM,> 100 µM,,,,
COC(=O)C1CCC(=O)N1C(c1ccccc1)c1cc(OC)c(OC)c(OC)c1 (stereo unspecified),> 100 µM,> 100 µM,> 100 µM,,> 100 µM,> 100 µM,89.3 µM,> 100 µM,> 100 µM,> 100 µM,> 100 µM,> 100 µM,> 100 µM,> 100 µM,> 100 µM,> 100 µM,58.8 µM,,,
O=C1C(=Nc2ccccc2)Oc2cc(O)ccc21,> 100 µM,> 100 µM,> 100 µM,> 100 µM,> 100 µM,> 100 µM,> 100 µM,> 100 µM,> 100 µM,> 100 µM,> 100 µM,> 100 µM,> 100 µM,> 100 µM,> 100 µM,,> 100 µM,,,
CCOc1ncn(-c2ccc(NC(=S)NC34CC5CC(CC(C5)C3)C4)cc2)n1,,,64.3 µM,> 100 µM,> 100 µM,> 100 µM,> 100 µM,,> 100 µM,> 100 µM,> 100 µM,> 100 µM,> 100 µM,> 100 µM,> 100 µM,60.6 µM,> 100 µM,,,
Cc1ccc2c(c1)-c1c(C#N)c(N)nc(-c3ccccc3)c1CCS2(=O)=O,> 100 µM,> 80.2 µM,> 95.5 µM,> 24 µM,> 100 µM,> 100 µM,> 100 µM,> 100 µM,> 100 µM,> 62.7 µM,> 100 µM,> 100 µM,> 46.9 µM,> 100 µM,> 100 µM,> 100 µM,,> 47.6 µM,,
NC(CCC(=O)O)(CCC(=O)O)CCC(=O)O,> 100 µM,,> 100 µM,> 100 µM,> 100 µM,> 100 µM,> 100 µM,> 100 µM,> 100 µM,> 100 µM,> 100 µM,,> 100 µM,> 100 µM,,> 100 µM,> 100 µM,> 100 µM,,
c1ccc(C2OCCO2)c(OCCOc2cc(OCCOc3ccccc3C3OCCO3)c(OCCOc3ccccc3C3OCCO3)cc2OCCOc2ccccc2C2OCCO2)c1,> 100 µM,35.4 µM,> 100 µM,> 100 µM,> 100 µM,31.4 µM,> 100 µM,> 100 µM,,27.3 µM,,46.8 µM,,37.6 µM,,21 µM,,,,
NNCCc1n[nH]c(=O)n1N,> 100 µM,,> 100 µM,> 100 µM,> 100 µM,,> 100 µM,> 100 µM,> 100 µM,> 100 µM,> 100 µM,> 100 µM,> 100 µM,> 100 µM,> 100 µM,> 100 µM,> 100 µM,> 100 µM,,
O=c1oc2c(ccc3ccccc32)cc1C1=CSC2=NCCN12,> 100 µM,,> 100 µM,> 100 µM,> 100 µM,> 100 µM,> 100 µM,> 100 µM,> 100 µM,> 100 µM,> 100 µM,> 100 µM,> 100 µM,> 100 µM,38.7 µM,84.3 µM,> 100 µM,> 100 µM,,
C[n+]1cccc2ccc(OC(=O)c3ccccc3)cc21,> 100 µM,> 100 µM,> 100 µM,> 100 µM,> 100 µM,> 100 µM,> 100 µM,> 100 µM,,> 100 µM,,> 100 µM,> 100 µM,> 100 µM,,> 100 µM,> 100 µM,> 100 µM,,
Cn1c(=O)c2c(ncn2CCCCOc2ccc3c(c2)[n+]([O-])nc(N)[n+]3[O-])n(C)c1=O,> 100 µM,,> 100 µM,22.1 µM,> 100 µM,> 100 µM,> 100 µM,> 100 µM,> 100 µM,> 100 µM,> 100 µM,> 100 µM,> 100 µM,42 µM,52.6 µM,33.4 µM,> 100 µM,> 100 µM,,
COC(=O)C1=C(CCCCO[Si](C)(C)C(C)(C)C)NC(=O)N2[C@@H](CCOCc3ccccc3)CC[C@H]12,92.9 µM,> 100 µM,,22.2 µM,32.7 µM,> 100 µM,> 100 µM,47.3 µM,75.8 µM,67.9 µM,52.1 µM,30.1 µM,> 100 µM,> 100 µM,78.9 µM,34.4 µM,49.9 µM,,,
C/C(=N\NC(=S)NC(C)(C)C)c1ccccn1,> 100 µM,> 39.6 µM,> 36.6 µM,> 40 µM,> 88.5 µM,> 100 µM,,> 79.5 µM,,> 100 µM,> 100 µM,> 100 µM,> 100 µM,25.7 µM,> 100 µM,9.47 µM,> 100 µM,> 100 µM,,
O=c1c2cn[nH]c2nc2scc(-c3ccc(Cl)cc3)n12,> 100 µM,,> 100 µM,> 100 µM,> 100 µM,> 100 µM,> 100 µM,> 100 µM,> 100 µM,> 100 µM,> 100 µM,> 100 µM,> 100 µM,> 100 µM,> 100 µM,,> 100 µM,> 100 µM,,
CC(C)C/C=C/C1=NN(c2cccc(S(=O)(=O)O)c2)C2(C1)SCC(=O)N2c1nc2ccccc2s1 (stereo unspecified),> 100 µM,88.2 µM,> 100 µM,> 100 µM,> 100 µM,> 100 µM,> 100 µM,> 100 µM,> 100 µM,> 100 µM,> 100 µM,,> 100 µM,> 100 µM,> 100 µM,> 100 µM,,> 100 µM,,
CC(C)C1COC(c2cccc(C3=N[C@@H](C(C)C)CO3)n2)=N1 (stereo partly specified),> 100 µM,> 100 µM,,> 100 µM,> 100 µM,> 100 µM,> 100 µM,> 100 µM,,> 100 µM,,> 100 µM,> 100 µM,,> 100 µM,> 100 µM,,,,
Cc1ccc2c(C)c3ccc4ccccc4c3c[n+]2c1,> 100 µM,> 100 µM,36.9 µM,25.4 µM,24 µM,> 100 µM,45.9 µM,9.74 µM,,38.6 µM,,38.1 µM,40.8 µM,27.4 µM,28.6 µM,52.7 µM,,,,
CC12c3c4cc(Br)cc3Oc3cc(Br)cc(c31)Oc1cc(Br)cc(c12)O4,,,> 100 µM,84.5 µM,83.4 µM,> 100 µM,> 100 µM,37.5 µM,55.3 µM,> 100 µM,59.3 µM,28.2 µM,> 100 µM,> 100 µM,> 100 µM,,> 100 µM,> 100 µM,,
C=CCC1OC(=O)CCNC(=O)C(C)N(C)C(=O)C(C(C)C)N(C)C(=O)C(C(C)CC)NC(=O)C2CCCN2C1=O (stereo unspecified) (cyclo([X33]PI[NMeV][NMeA][βAla]); configuration not given here),> 100 µM,,> 100 µM,6.12 µM,> 100 µM,> 100 µM,> 100 µM,,> 100 µM,> 100 µM,62.9 µM,> 100 µM,> 100 µM,7.43 µM,> 100 µM,> 100 µM,> 100 µM,> 100 µM,,
NC(CCCCNC(=O)CNC(=O)OCc1ccccc1)C(=O)NC(CCCCNC(=O)CNC(=O)OCc1ccccc1)C(=O)NC(CCCCNC(=O)CNC(=O)OCc1ccccc1)C(=O)NC(CCCCNC(=O)CNC(=O)OCc1ccccc1)C(=O)NC(CCCCNC(=O)CNC(=O)OCc1ccccc1)C(=O)NC(CCCCNC(=O)CNC(=O)OCc1ccccc1)C(=O)O (stereo unspecified),> 75 µM,> 75 µM,> 75 µM,> 75 µM,> 75 µM,> 75 µM,> 75 µM,> 75 µM,> 75 µM,> 75 µM,> 75 µM,> 75 µM,> 75 µM,> 75 µM,> 75 µM,,,,,
CCOP(=O)(OCC)C1=C(c2ccccc2)OC(N)=C(C#N)C1c1ccc(Cl)cc1 (stereo unspecified),> 100 µM,> 100 µM,> 100 µM,> 100 µM,> 100 µM,> 100 µM,> 100 µM,> 100 µM,> 100 µM,> 100 µM,> 100 µM,> 100 µM,> 100 µM,> 100 µM,> 100 µM,> 100 µM,> 100 µM,,,
C=C=C(Sc1ccccc1)C(C)(C)OC(C)=O,90.2 µM,42.6 µM,46.9 µM,29.3 µM,31.1 µM,> 100 µM,> 100 µM,35.3 µM,,32.9 µM,,31.1 µM,40.4 µM,29.2 µM,43.1 µM,34.2 µM,,,,
O=c1oc(-c2ccccc2)c(-c2ccccc2)n1-c1ccc(Br)cc1,> 100 µM,> 100 µM,> 100 µM,> 100 µM,> 100 µM,> 100 µM,> 100 µM,,> 100 µM,85.3 µM,> 100 µM,> 100 µM,> 100 µM,> 100 µM,,> 100 µM,,> 100 µM,,
CC(C)CC(NC(=O)C(CCI)Cc1ccccc1)C(=O)Nc1ccccc1 (stereo unspecified),> 100 µM,> 100 µM,> 100 µM,> 100 µM,> 100 µM,> 100 µM,83.6 µM,> 100 µM,> 100 µM,> 100 µM,> 100 µM,> 100 µM,> 100 µM,> 100 µM,> 100 µM,> 100 µM,> 100 µM,,,
O=C(Cc1ccccc1)NNc1nc(NNC(=O)c2ccncc2)nc(Nc2cccc(Cl)c2)n1,> 10 µM,,> 10 µM,> 10 µM,> 10 µM,> 10 µM,> 10 µM,> 10 µM,,> 10 µM,> 10 µM,,,> 10 µM,> 10 µM,> 10 µM,> 10 µM,> 10 µM,,
CCOc1ccc(NCC2CC/C(=C\c3ccc(O)cc3)C2=O)cc1 (stereo unspecified),34.3 µM,38.9 µM,34.4 µM,33.8 µM,35.6 µM,26.2 µM,> 38.4 µM,28.5 µM,30.7 µM,50.4 µM,38.4 µM,25.5 µM,> 55.2 µM,37.7 µM,34 µM,30 µM,,73.7 µM,,
CCOc1cc2c(cc1O)/C(=N/NS(=O)(=O)c1ccc(C)cc1)C[C@@H]1[C@@H]2CC[C@]2(C)[C@@H](O)CC[C@@H]12,> 100 µM,> 100 µM,> 100 µM,> 100 µM,> 100 µM,> 100 µM,7.04 µM,> 100 µM,> 100 µM,> 100 µM,> 100 µM,> 100 µM,> 100 µM,,15.1 µM,> 100 µM,,> 100 µM,12.1 µM,3.18 µM
